This passage reports EC50, AC50 and IC50 results from ChEMBL document CHEMBL1201862, “PubChem BioAssay data set” (2004).

Calls of active or inactive are those of the source. Rule as the data show it, for most assays here: actives have a measured EC50 and inactives only a lower limit.

Assay [1] can be described thus: luciferase reporter signal suppression in cells – H4 neuroglioma cells, luminescence, dose response (AID 1990). In kind it is functional, cell-based. (In general: Reporter assays use an easily measured gene product as a stand-in for the process of interest.)
The next assay has as its system HEK293. Kind of assay: EBV LMP1 TES2 canonical NF-kB signalling blockers – cell-based, HEK293, luciferase, cherry-pick, dose response (AID 588343). Format: functional. The settings on record: Homo sapiens.
For assay [2], the target named is T1, Heat shock factor protein 1 (Mus musculus, UniProt P38532).
T1 sequence (P38532 whole entry): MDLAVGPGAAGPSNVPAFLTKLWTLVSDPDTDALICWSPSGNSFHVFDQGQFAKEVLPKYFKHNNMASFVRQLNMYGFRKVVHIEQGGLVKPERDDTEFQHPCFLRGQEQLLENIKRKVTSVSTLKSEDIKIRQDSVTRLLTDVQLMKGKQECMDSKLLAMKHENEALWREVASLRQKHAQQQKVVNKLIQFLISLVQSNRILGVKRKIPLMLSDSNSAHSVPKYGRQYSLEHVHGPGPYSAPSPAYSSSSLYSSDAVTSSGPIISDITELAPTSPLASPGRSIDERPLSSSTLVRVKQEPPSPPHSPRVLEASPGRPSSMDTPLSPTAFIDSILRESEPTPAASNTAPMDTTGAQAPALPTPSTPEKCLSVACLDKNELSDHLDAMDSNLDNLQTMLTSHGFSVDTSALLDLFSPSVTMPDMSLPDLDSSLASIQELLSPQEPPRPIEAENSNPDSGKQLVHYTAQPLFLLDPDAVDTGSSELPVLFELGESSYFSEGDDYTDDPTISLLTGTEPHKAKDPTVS
Briefly: enhancement of HSF1-driven luciferase signal – cell-based, NIH3T3, luminescence, dose retest, confirmation (AID 435004).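 Also: stress induced by proteasome inhibitor MG132 added 30 min after compound; luciferase reporter driven by HSF1 response element in NIH3T3 cells; actives raise luminescence as potentiators of the MG132 stress response.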 Format: functional.

The nature of assay [3]: Luminescence Cell-Based Dose Response HTS to Identify Inhibitors of 5'UTR Stem-Loop Driven Prion Protein mRNA Translation in H4 Neuroglioblastoma Cells. [Related pubchem assays: 1827 (Project Summary), 1813 (Primary HTS)]. In kind it is functional.
The subject of a further assay is HT-1080. Kind of assay: HT1080 cell viability loss – fluorescence readout (AID 620). The note with it: Homo sapiens. Format: functional, cell-based.
Assay [4] deals with Luciferin 4-monooxygenase (Photinus pyralis, UniProt P08659). Kind of assay: Counter Screen for Luciferase-based Assay Positives. [Related pubchem assays: 620, 618, 411 ].
Assay [5] in a line: alpha-synuclein stem-loop luciferase translation blockers – H4 neuroglioma cells, luminescence, confirmation (AID 1988). In kind it is functional, cell-based.
Assay [6] addresses Glyceraldehyde-3-phosphate dehydrogenase (Homo sapiens, UniProt P04406).
The target of assay [7] is T2, Mannose-6-phosphate isomerase (Homo sapiens, UniProt P34949).
T2 sequence (P34949 whole entry): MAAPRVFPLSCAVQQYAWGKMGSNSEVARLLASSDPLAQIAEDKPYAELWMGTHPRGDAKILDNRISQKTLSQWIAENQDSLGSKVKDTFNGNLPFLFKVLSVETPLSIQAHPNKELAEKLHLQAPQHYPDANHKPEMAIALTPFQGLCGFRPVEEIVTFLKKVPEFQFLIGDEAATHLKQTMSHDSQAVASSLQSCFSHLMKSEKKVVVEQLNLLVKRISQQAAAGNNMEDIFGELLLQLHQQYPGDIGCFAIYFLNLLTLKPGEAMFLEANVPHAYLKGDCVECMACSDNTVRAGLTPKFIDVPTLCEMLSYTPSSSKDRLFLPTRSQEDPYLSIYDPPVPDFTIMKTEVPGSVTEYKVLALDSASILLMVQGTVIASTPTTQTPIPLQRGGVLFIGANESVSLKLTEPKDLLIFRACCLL
Briefly: MPI inhibition at elevated mannose 6-phosphate – biochemical, fluorescence intensity, high mannose 6-phosphate, primary screen (AID 1220).

A short description of assay [8]: HEK-293T cell viability reduction – luminescence, B-cell screen hits, cytotoxicity control for BCR NF-kB inhibitor project, dose response (AID 489021).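 Also: HEK-293T cells carrying an NF-kB luciferase reporter; cells exposed to compound for about 14 hours before viability readout.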 Format: functional, cell-based.
For assay [9], the target named is T3, Histone-lysine N-methyltransferase NSD2 (Homo sapiens, UniProt O96028).
T3 sequence (O96028 whole entry): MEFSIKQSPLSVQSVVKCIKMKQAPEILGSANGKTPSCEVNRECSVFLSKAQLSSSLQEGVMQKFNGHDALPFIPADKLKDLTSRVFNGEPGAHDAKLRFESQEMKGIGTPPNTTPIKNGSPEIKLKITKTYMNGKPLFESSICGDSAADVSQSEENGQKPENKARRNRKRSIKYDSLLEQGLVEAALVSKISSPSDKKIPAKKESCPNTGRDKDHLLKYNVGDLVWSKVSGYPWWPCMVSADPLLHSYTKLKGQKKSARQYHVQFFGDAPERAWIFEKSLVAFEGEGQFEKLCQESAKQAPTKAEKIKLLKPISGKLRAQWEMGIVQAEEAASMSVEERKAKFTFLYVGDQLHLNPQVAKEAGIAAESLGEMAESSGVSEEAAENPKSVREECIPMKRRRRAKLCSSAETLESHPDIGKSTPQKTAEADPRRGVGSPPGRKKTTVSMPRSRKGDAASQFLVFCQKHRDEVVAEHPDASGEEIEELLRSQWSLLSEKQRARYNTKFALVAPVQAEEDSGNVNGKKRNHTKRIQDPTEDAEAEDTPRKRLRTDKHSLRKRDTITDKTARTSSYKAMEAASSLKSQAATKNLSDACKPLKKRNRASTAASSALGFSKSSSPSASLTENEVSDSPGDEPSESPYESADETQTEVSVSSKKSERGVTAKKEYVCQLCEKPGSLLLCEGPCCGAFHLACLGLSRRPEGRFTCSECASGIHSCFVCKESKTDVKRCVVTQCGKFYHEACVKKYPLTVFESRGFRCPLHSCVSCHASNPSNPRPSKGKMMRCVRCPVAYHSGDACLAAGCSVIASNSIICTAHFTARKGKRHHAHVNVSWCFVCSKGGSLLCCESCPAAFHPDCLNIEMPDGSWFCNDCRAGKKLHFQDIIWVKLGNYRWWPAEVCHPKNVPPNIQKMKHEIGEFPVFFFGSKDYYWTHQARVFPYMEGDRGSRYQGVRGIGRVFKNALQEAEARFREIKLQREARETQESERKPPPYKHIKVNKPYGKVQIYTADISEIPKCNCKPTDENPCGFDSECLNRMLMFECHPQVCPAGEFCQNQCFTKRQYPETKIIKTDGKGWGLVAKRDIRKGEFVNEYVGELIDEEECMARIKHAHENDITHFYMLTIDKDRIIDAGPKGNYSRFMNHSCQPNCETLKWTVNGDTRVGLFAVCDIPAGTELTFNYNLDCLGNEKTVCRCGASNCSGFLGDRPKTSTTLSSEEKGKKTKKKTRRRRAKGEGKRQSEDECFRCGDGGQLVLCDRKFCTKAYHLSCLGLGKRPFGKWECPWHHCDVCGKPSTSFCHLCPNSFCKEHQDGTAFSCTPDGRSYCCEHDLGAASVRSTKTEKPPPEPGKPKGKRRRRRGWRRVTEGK
In kind it is biochemical.

For the next assay, the target named is T4, Protein RecA (Mycobacterium tuberculosis, UniProt P9WHJ3).
T4 sequence (P9WHJ3 whole entry): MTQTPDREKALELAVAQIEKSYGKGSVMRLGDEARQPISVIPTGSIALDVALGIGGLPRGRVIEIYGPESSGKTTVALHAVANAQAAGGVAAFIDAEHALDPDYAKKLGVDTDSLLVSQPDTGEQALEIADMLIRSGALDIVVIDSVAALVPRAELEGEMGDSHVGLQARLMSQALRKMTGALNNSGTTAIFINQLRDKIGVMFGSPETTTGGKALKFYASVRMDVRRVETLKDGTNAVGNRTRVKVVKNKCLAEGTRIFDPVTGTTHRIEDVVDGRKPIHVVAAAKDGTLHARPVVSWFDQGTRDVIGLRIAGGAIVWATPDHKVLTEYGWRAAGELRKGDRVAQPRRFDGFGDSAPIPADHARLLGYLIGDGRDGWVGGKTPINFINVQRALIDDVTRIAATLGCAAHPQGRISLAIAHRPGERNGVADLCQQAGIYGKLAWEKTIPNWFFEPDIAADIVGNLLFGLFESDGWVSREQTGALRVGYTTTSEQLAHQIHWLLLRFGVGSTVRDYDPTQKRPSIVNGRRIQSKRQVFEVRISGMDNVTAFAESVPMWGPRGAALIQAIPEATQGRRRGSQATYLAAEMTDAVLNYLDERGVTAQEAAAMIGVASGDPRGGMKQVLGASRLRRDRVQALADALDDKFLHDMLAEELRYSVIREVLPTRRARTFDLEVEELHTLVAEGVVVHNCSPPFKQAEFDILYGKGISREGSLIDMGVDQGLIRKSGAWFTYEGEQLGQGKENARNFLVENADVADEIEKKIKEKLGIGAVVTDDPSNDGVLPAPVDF
Kind of assay: Fluorescence Cell-Free Homogeneous Dose Retest to Identify Inhibitors of RecA-Intein Splicing Activity. [Related pubchem assays (depositor defined):AID2097, AID2223, AID489010, AID492950]. Format: functional.

The target of assay [10] is T5, Replicative DNA helicase DnaB (Mycobacterium tuberculosis, UniProt P9WMR3).
T5 sequence (P9WMR3 whole entry): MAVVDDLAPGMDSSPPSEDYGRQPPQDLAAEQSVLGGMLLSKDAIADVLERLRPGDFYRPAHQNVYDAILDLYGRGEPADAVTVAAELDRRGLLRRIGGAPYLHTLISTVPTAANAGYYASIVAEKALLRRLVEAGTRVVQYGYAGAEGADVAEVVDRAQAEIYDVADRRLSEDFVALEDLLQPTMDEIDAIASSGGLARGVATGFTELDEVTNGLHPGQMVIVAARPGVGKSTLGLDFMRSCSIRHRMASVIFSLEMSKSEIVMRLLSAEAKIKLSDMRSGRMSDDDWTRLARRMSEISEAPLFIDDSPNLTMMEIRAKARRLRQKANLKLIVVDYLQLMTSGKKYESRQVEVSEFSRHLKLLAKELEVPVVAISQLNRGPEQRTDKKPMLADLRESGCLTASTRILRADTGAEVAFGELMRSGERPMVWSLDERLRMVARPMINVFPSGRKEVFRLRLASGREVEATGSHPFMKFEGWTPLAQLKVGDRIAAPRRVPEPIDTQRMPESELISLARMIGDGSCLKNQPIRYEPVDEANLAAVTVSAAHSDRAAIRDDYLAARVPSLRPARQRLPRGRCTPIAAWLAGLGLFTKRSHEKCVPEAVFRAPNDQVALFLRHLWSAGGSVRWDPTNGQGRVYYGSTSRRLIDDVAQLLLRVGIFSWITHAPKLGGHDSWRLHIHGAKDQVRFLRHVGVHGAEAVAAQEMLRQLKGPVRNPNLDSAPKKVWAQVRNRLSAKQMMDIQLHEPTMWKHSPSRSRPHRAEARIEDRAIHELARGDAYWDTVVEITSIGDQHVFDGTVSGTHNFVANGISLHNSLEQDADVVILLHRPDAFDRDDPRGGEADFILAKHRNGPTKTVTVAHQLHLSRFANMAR
Briefly: DnaB intein splicing inhibitors, dose response, biochemical, cell-free fluorescence (AID 449749). In kind it is functional.

The target of another assay is Estrogen receptor beta (Homo sapiens, UniProt Q92731). Kind of assay: blockers of SRC-3 recruitment to ERβ – biochemical, ELISA, streptavidin-HRP readout, orthogonal assay, confirmation (AID 1060).
Assay [11] is described as follows: Trypanosoma cruzi growth suppression in host cells – NIH3T3 host cells, beta-gal luminescence, confirmation (AID 2044).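 Also: intracellular parasites grown in NIH/3T3 mouse fibroblasts as host cells; luminescent beta-galactosidase reporter signal from transgenic T. cruzi replicating inside host cells; inhibitors lower the luminescence signal.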 Format: functional, cell-based.
The nature of assay [12]: NIH3T3 cell viability loss – ATP luminescence, mouse fibroblasts, counter-screen, dose response (AID 2010).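 Also: cells exposed to compound for about 90 hours before reading.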 Format: functional, cell-based. (The purpose of a counterscreen is to sort out artefacts and off-target activity.)

Sequence of Estrogen receptor beta (Q92731 whole entry): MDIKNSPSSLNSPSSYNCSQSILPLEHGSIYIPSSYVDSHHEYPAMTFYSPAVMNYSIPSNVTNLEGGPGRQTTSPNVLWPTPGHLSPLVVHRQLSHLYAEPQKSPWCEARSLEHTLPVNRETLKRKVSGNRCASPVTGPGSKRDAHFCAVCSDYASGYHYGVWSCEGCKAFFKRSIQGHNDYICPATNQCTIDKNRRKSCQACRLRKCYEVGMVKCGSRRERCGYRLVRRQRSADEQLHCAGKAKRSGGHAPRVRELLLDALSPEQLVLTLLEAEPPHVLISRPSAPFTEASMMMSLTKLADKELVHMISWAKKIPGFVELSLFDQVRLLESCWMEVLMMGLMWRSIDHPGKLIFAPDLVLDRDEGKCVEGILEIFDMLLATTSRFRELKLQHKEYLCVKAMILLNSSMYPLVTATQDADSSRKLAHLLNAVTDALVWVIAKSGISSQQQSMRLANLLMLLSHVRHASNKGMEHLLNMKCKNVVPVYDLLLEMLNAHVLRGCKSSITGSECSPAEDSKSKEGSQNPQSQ
Sequence of Luciferin 4-monooxygenase (P08659 whole entry): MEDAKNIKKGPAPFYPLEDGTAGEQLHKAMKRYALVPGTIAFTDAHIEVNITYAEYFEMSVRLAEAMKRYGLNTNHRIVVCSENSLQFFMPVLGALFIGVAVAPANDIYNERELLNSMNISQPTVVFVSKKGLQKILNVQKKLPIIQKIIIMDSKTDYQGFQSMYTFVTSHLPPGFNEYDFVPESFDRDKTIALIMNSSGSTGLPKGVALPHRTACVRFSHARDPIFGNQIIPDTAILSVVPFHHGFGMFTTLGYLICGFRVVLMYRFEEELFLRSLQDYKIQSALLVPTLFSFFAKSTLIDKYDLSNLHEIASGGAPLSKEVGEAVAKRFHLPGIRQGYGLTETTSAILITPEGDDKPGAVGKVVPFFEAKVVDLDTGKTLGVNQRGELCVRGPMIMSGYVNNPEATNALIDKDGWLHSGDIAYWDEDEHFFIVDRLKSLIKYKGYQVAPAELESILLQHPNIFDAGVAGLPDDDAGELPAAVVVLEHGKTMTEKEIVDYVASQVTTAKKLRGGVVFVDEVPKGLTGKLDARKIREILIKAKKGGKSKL
Sequence of Glyceraldehyde-3-phosphate dehydrogenase (P04406 whole entry): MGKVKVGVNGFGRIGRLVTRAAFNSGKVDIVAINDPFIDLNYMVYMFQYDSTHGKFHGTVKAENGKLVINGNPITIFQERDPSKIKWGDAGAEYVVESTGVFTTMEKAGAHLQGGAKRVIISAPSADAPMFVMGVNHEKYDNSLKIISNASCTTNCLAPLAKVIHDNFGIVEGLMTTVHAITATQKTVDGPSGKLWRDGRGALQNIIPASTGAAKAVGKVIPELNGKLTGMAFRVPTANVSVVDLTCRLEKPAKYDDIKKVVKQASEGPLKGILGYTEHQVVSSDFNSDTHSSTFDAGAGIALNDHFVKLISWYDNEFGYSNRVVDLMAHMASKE

Broadly, the EC50 is the midpoint of the concentration-response curve. Usually AC50 stands for the midpoint of the concentration-response curve, whichever way the signal moves. For the compound `Cc1ccc(C(=O)CSc2nnnn2C(C)C)c(C)c1`, the EC50 in assay [1] is 9.17 µM (active); in assay [2], > 260 µM (inactive); in assay [3], 14.7 µM (active); with HT-1080, > 50 µM (not active); in assay [4], 8.28 µM (active); in assay [5], 3.7 µM (active). In addition, in the assay on HEK293, the AC50 is 2.92 µM (active).
As a reminder, the IC50 is the concentration needed to halve the response being measured. With `O=C1C(Cl)=C(N2CCN(Cc3ccccc3)CC2)C(=O)N1c1ccnc(Cl)c1`, the IC50 in [6] is > 50 µM (inconclusive).
For the compound `CCN(CC)c1ccc(N/C=C2\C(=O)NC(=O)N(CCc3ccc(OC)c(OC)c3)C2=O)cc1`, the IC50 in [7] is > 50 µM (not active).
With `COc1ccc(-c2noc(CCCC(=O)Nc3ccc(C(N)=O)cc3)n2)cc1`, in [8], the IC50 was > 80 µM (inactive).
Turning to `CC1=Nc2cccc3cccc(c23)N1C`, in assay [7], the IC50 was > 50 µM (not active). The AC50 in [9] is 1.25 µM (active); in assay [10], > 380 µM (inactive). Also, on Protein RecA, the EC50 was > 380 µM (inactive).
As to `Cc1cc(-c2csc(N)n2)c(C)n1CCC(C)C`, the EC50 with HT-1080 was > 50 µM (not active); in [4], 16 µM (active).
Turning to `CCc1ccc(NC(=O)CSc2nc(C)cc(O)n2)cc1`, the IC50 at Estrogen receptor beta was 48.8 µM (not active).
`CSCCC(=O)N(C)CC1CCCN(CCc2cccc(C(F)(F)F)c2)C1` (centres undefined): the EC50 in the assay “cells” is 0.329 µM (active); in assay [11], < 0.1 µM (active); in assay [12] it was > 60 µM (not active).
Taken in the same sequence, the figures for `COCc1cc(CN2CCCC(C(=O)Nc3cccc(-n4cnnn4)c3)C2)ccc1OC` (centres undefined) were 0.061 µM (active), < 0.1 µM (active) and > 60 µM (not active).
Consider `CC(=N)/C(C#N)=C(/O)CSc1nnnn1-c1ccccc1`, for which the IC50 against Estrogen receptor beta is reported as > 50 µM (not active).
